Laboratory results reported in patent US20260043061A1, “ENZYMATICALLY MEDIATED REACTIVE CRYSTALLIZATION OF STEVIOL GLYCOSIDES” (Arzeda Corp., priority 2022, published 2026).

Experiment: Solubility of select steviol glycosides at room temperature
Format: physicochemical
Details: in water, some species may not be completely pure
Description: Pure steviol glycosides are sparingly soluble in water. Solubility measurements may reflect the true thermodynamic solubility or a short-term kinetic solubility. The kinetic solubility value occurs when an isomeric form has been prepared that is not thermodynamically stable at long time scales yet has higher solubility at short times scales. A few steviol glycoside species have a free carboxylic acid group. These species tend to have higher solubility. Nevertheless, steviol glycosides are generally poorly soluble in water, as shown in Table 3 (certain measurements are for species that may not be completely pure).

In order of rising Solubility:
1. C=C1C[C@@]23CC[C@H]4[C@@](C)(CCC[C@@]4(C)C(=O)O[C@@H]4O[C@H](CO)[C@@H](O)[C@H](O[C@@H]5O[C@H](CO)[C@@H](O)[C@H](O)[C@H]5O)[C@H]4O[C@@H]4O[C@H](CO)[C@@H](O)[C@H](O)[C@H]4O)[C@@H]2CC[C@]1(O[C@@H]1O[C@H](CO)[C@@H](O)[C@H](O[C@@H]2O[C@H](CO)[C@@H](O)[C@H](O)[C@H]2O)[C@H]1O[C@@H]1O[C@H](CO)[C@@H](O)[C@H](O)[C@H]1O)C3 [Reb M, rebaudioside M]  0.05% wt %
2. C=C1C[C@@]23CC[C@H]4[C@@](C)(CCC[C@@]4(C)C(=O)O[C@@H]4O[C@H](CO)[C@@H](O)[C@H](O)[C@H]4O)[C@@H]2CC[C@]1(O[C@@H]1O[C@H](CO)[C@@H](O)[C@H](O[C@@H]2O[C@H](CO)[C@@H](O)[C@H](O)[C@H]2O)[C@H]1O[C@@H]1O[C@H](CO)[C@@H](O)[C@H](O)[C@H]1O)C3 [Reb A hydrate, rebaudioside A]  0.10% wt %
3. C=C1C[C@@]23CC[C@H]4[C@@](C)(CCC[C@@]4(C)C(=O)O[C@@H]4O[C@H](CO)[C@@H](O)[C@H](O)[C@H]4O[C@@H]4O[C@H](CO)[C@@H](O)[C@H](O)[C@H]4O)[C@@H]2CC[C@]1(O[C@@H]1O[C@H](CO)[C@@H](O)[C@H](O[C@@H]2O[C@H](CO)[C@@H](O)[C@H](O)[C@H]2O)[C@H]1O[C@@H]1O[C@H](CO)[C@@H](O)[C@H](O)[C@H]1O)C3 [Reb D, rebaudioside D]  0.10% wt %
4. rebaudioside C [Reb C]  0.20% wt %
5. C=C1C[C@@]23CC[C@H]4[C@@](C)(CCC[C@@]4(C)C(=O)O[C@@H]4O[C@H](CO)[C@@H](O)[C@H](O)[C@H]4O)[C@@H]2CC[C@]1(O[C@@H]1O[C@H](CO)[C@@H](O)[C@H](O)[C@H]1O[C@@H]1O[C@H](CO)[C@@H](O)[C@H](O)[C@H]1O)C3 [Stevioside, stevioside]  0.44% wt %
6. C=C1C[C@@]23CC[C@H]4[C@@](C)(CCC[C@@]4(C)C(=O)O[C@@H]4O[C@H](CO)[C@@H](O)[C@H](O)[C@H]4O)[C@@H]2CC[C@]1(O[C@@H]1O[C@H](CO)[C@@H](O)[C@H](O[C@@H]2O[C@H](CO)[C@@H](O)[C@H](O)[C@H]2O)[C@H]1O[C@@H]1O[C@H](CO)[C@@H](O)[C@H](O)[C@H]1O)C3 [Reb A, rebaudioside A]  0.46% wt %
7. C=C1C[C@@]23CC[C@H]4[C@@](C)(CCC[C@@]4(C)C(=O)O[C@@H]4O[C@H](CO)[C@@H](O)[C@H](O)[C@H]4O)[C@@H]2CC[C@]1(O[C@@H]1O[C@H](CO)[C@@H](O)[C@H](O[C@@H]2O[C@H](CO)[C@@H](O)[C@H](O)[C@H]2O)[C@H]1O[C@@H]1O[C@H](CO)[C@@H](O)[C@H](O)[C@H]1O)C3 [Reb A 97%, rebaudioside A]  0.80% wt %
8. C=C1C[C@@]23CC[C@H]4[C@@](C)(CCC[C@@]4(C)C(=O)O[C@@H]4O[C@H](CO)[C@@H](O)[C@H](O)[C@H]4O)[C@@H]2CC[C@]1(O[C@@H]1O[C@H](CO)[C@@H](O)[C@H](O[C@@H]2O[C@H](CO)[C@@H](O)[C@H](O)[C@H]2O)[C@H]1O[C@@H]1O[C@H](CO)[C@@H](O)[C@H](O)[C@H]1O)C3 [Reb A anhydrous, rebaudioside A]  0.80% wt %
